Target: Erk1 (Homo sapiens (Human), UniProt P27361)
Experiment: Protein Mass Modification Assay (intact protein MALDI)
Format: binding
How it was run: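 Percent covalent modification comes from the intact-protein MALDI centroid mass shift, treated versus control, divided by compound MW. Before analysis, human Erk1 was exposed to compound at 10-fold excess over protein for 60 min at room temperature.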

Erk1, sequence (P27361 whole entry, looked up): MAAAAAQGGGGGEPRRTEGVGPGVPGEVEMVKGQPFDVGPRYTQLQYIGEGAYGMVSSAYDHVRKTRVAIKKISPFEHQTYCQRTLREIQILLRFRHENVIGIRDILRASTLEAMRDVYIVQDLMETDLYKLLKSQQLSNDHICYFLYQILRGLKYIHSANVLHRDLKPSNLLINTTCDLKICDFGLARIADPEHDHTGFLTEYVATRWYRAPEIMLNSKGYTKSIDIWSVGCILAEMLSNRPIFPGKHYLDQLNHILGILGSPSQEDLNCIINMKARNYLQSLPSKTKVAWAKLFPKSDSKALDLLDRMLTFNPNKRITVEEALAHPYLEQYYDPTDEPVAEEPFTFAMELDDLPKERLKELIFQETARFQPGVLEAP

Row | Compound | ERK1 Mass Mod (%)
1 | C=CC(=O)Nc1ccccc1Nc1nc(Nc2cc(F)ccc2C)ncc1C(F)(F)F [Compound I-285, N-(2-((2-((5-Fluoro-2-methylphenyl)amino)-5-(trifluoromethyl)pyrimidin-4-yl)amino)phenyl)acrylamide] | E (provided a mass modification of ≧70%)
2 | C=CC(=O)Nc1ccccc1Nc1nc(Nc2ccnc(F)c2)ncc1C(F)(F)F [Compound I-287, N-(2-((2-((2-Fluoropyridin-4-yl)amino)-5-(trifluoromethyl)pyrimidin-4-yl)amino)phenyl)acrylamide] | E (provided a mass modification of ≧70%)
3 | C=CC(=O)Nc1cc(C)ccc1Nc1nc(Nc2ccnc(F)c2)ncc1C(F)(F)F [Compound I-288, N-(2-((2-((2-Fluoropyridin-4-yl)amino)-5-(trifluoromethyl)pyrimidin-4-yl)amino)-5-methylphenyl)acrylamide] | E (provided a mass modification of ≧70%)
4 | C=CC(=O)Nc1ccccc1Nc1nc(Nc2ccnnc2)ncc1C(F)(F)F [Compound I-293, N-(2-((2-(Pyridazin-4-ylamino)-5-(trifluoromethyl)pyrimidin-4-yl)amino)phenyl) acrylamide] | E (provided a mass modification of ≧70%)
5 | C=CC(=O)Nc1cc(C)ccc1Nc1nc(Nc2cc(NCCOC)nc(OC)c2)ncc1C(F)(F)F [Compound I-294, N-(2-((2-((2-methoxy-6-((2-methoxyethyl)amino)pyridin-4-yl)amino)-5-(trifluoromethyl)pyrimidin-4-yl)amino)-5-methylphenyl)acrylamide] | E (key: E: provided a mass modification of ≧70%; F: provided a mass modification of 31-69%; G: proived a mass modification ≦30%)
6 | C=CC(=O)Nc1cc(C)ccc1Nc1nc(Nc2cc(C)nc(OC)c2)ncc1C(F)(F)F [Compound I-295, N-(2-((2-((2-methoxy-6-methylpyridin-4-yl)amino)-5-(trifluoromethyl)pyrimidin-4-yl)amino)-5-methylphenyl)acrylamide] | E (provided a mass modification of ≧70%)
7 | C=CC(=O)Nc1ccccc1Nc1nc(Nc2cc(C(N)=O)c(OCCCNC(=O)CCCC(=O)NCCCOCCOCCOCCCNC(=O)CCCC[C@@H]3SC[C@@H]4NC(=O)N[C@@H]43)cc2C)ncc1Cl [Compound I-299, N^1-(3-(4-((4-((2-acrylamidophenyl)amino)-5-chloropyrimidin-2-yl)amino)-2-carbamoyl-5-methylphenoxy)propyl)-N^5-(15-oxo-19-((3aS,4S,6aR)-2-oxohexahydro-1H-thieno[3,4-d]imidazol-4-yl)-4,7,10-trioxa-14-azanonadecyl)glutaramide] | E (provided a mass modification of ≧70%)
8 | C=CC(=O)Nc1ccccc1Nc1nc(NC2CCN(C(=O)CCCC(=O)NCCCOCCOCCOCCCNC(=O)CCCC[C@@H]3SC[C@@H]4NC(=O)N[C@@H]43)CC2)ncc1Cl [Compound I-300, 5-(4-((4-((2-acrylamidophenyl)amino)-5-chloropyrimidin-2-yl)amino)piperidin-1-yl)-5-oxo-N-(15-oxo-19-((3aS,4S,6aR)-2-oxohexahydro-1H-thieno[3,4-d]imidazol-4-yl)-4,7,10-trioxa-14-azanonadecyl)pentanamide] | E (provided a mass modification of ≧70%)
9 | C=CC(=O)Nc1ccccc1Nc1nc(Nc2ccc(NC(=O)CCCC(=O)NCCCOCCOCCOCCCNC(=O)CCCC[C@H]3SC[C@H]4NC(=O)N[C@H]43)cc2OC)ncc1Cl [Compound I-301, N^1-(4-((4-((2-acrylamidophenyl)amino)-5-chloropyrimidin-2-yl)amino)-3-methoxyphenyl)-N^5-(15-oxo-19-((3aR,4R,6aS)-2-oxohexahydro-1H-thieno[3,4-d]imidazol-4-yl)-4,7,10-trioxa-14-azanonadecyl)glutaramide] | E (provided a mass modification of ≧70%)
10 | C=CC(=O)Nc1ccccc1Nc1nc(Nc2cc(NC(=O)CCCC(=O)NCCCOCCOCCOCCCNC(=O)CCCC[C@@H]3SC[C@@H]4NC(=O)N[C@@H]43)cc(C(N)=O)c2)ncc1Cl [Compound I-304, N^1-(3-((4-((2-acrylamidophenyl)amino)-5-chloropyrimidin-2-yl)amino)-5-carbamoylphenyl)-N-(15-oxo-19-((3aS,4S,6aR)-2-oxohexahydro-1H-thieno[3,4-d]imidazol-4-yl)-4,7,10-trioxa-14-azanonadecyl)glutaramide] | G (proived a mass modification ≦30%)
11 | C=CC(=O)Nc1ccccc1Nc1nc(Nc2cc(C(N)=O)c(OCCCNC(=O)C#CC)cc2C)ncc1Cl [Compound I-305, 5-((4-((2-acrylamidophenyl)amino)-5-chloropyrimidin-2-yl)amino)-2-(3-(but-2-ynamido)propoxy)-4-methylbenzamide] | E (provided a mass modification of ≧70%)
12 | C=CC(=O)Nc1ccccc1Nc1nc(Nc2ccc(N3CCN(C(=O)CCCC(=O)NCCCOCCOCCOCCCNC(=O)CCCC[C@@H]4SC[C@@H]5NC(=O)N[C@@H]54)CC3)cc2OC(F)F)ncc1Cl [Compound I-306, 5-(4-(4-((4-((2-acrylamidophenyl)amino)-5-chloropyrimidin-2-yl)amino)-3-(difluoromethoxy)phenyl)piperazin-1-yl)-5-oxo-N-(15-oxo-19-((3aS,4S,6aR)-2-oxohexahydro-1H-thieno[3,4-d]imidazol-4-yl)-4,7,10-trioxa-14-azanonadecyl)pentanamide] | E (provided a mass modification of ≧70%)
13 | CC(=O)N1CCC[C@H](Nc2ncc(C(F)(F)F)c(N[C@H]3[C@@H](C(N)=O)[C@@H]4C=C[C@H]3C4)n2)C1 [Compound I-308, (1S,2S,3R,4R)-3-((2-(((S)-1-acetylpiperidin-3-yl)amino)-5-(trifluoromethyl)pyrimidin-4-yl)amino)bicyclo[2.2.1]hept-5-ene-2-carboxamide] | G (proived a mass modification ≦30%)
14 | COc1cc(N2CCOCC2)ccc1Nc1ncc(C(C)=O)c(Nc2ccccc2N)n1 [Compound I-313, 1-(4-((2-aminophenyl)amino)-2-((2-methoxy-4-morpholinophenyl)amino)pyrimidin-5-yl)ethanone] | G (proived a mass modification ≦30%)
15 | C=CC(=O)Nc1ccccc1Nc1nc(Nc2ccc(N(CC)C(C)=O)cc2C(F)(F)F)ncc1Cl [Compound I-320] | F (provided a mass modification of 31-69%)
16 | C=CC(=O)Nc1cc(C(F)(F)F)ccc1Nc1nc(Nc2cc(OC)ncc2C)ncc1C(F)(F)F [Compound I-323, N-(2-((2-((2-methoxy-5-methylpyridin-4-yl)amino)-5-(trifluoromethyl)pyrimidin-4-yl)amino)-5-(trifluoromethyl)phenyl)acrylamide] | E (provided a mass modification of ≧70%)
17 | C=CC(=O)Nc1cc(C)ccc1Nc1nc(Nc2cc(OC)nc(N3CCN(C)CC3)c2)ncc1C(F)(F)F [Compound I-325, N-(2-((2-((2-methoxy-6-(4-methylpiperazin-1-yl)pyridin-4-yl)amino)-5-(trifluoromethyl)pyrimidin-4-yl)amino)-5-methylphenyl)acrylamide] | E (provided a mass modification of ≧70%)
18 | C=CS(=O)(=O)Nc1cc(C)ccc1Nc1nc(Nc2cc(OC)ncc2C)ncc1C(F)(F)F [Compound I-333, N-(2-((2-((2-methoxy-5-methylpyridin-4-yl)amino)-5-(trifluoromethyl)pyrimidin-4-yl)amino)-5-methylphenyl)ethenesulfonamide] | E (provided a mass modification of ≧70%)
19 | C=CC(=O)Nc1cc(C)ccc1Nc1nc(Nc2cc(OC)nc(N(C)CCOC)c2)ncc1C(F)(F)F [Compound I-336, N-(2-((2-((2-methoxy-6-((2-methoxyethyl)(methyl)amino)pyridin-4-yl)amino)-5-(trifluoromethyl)pyrimidin-4-yl)amino)-5-methylphenyl)acrylamide] | E (provided a mass modification of ≧70%)
20 | C=CC(=O)Nc1cc(C)ccc1Nc1nc(Nc2cc(NC3CC3)nc(OC)c2)ncc1C(F)(F)F [Compound I-337, N-(2-((2-((2-(cyclopropylamino)-6-methoxypyridin-4-yl)amino)-5-(trifluoromethyl)pyrimidin-4-yl)amino)-5-methylphenyl)acrylamide] | E (provided a mass modification of ≧70%)
21 | C=CC(=O)Nc1ccccc1Nc1nc(Nc2cc(OC)cc(OC)c2)ncc1C(F)(F)F [Compound I-338, N-(2-((2-((3,5-dimethoxyphenyl)amino)-5-(trifluoromethyl)pyrimidin-4-yl)amino)phenyl)acrylamide] | E (provided a mass modification of ≧70%)
22 | C=CC(=O)Nc1ccccc1Nc1nc(Nc2cc(OC)ccc2C)ncc1C(F)(F)F [Compound I-340, N-(2-((2-((5-methoxy-2-methylphenyl)amino)-5-(trifluoromethyl)pyrimidin-4-yl)amino)phenyl)acrylamide] | E (provided a mass modification of ≧70%)
23 | C=CC(=O)Nc1cc(C)ccc1Nc1nc(Nc2cc(OC)ccc2C)ncc1C(F)(F)F [Compound I-341, N-(2-((2-((5-methoxy-2-methylphenyl)amino)-5-(trifluoromethyl)pyrimidin-4-yl)amino)-5-methylphenyl)acrylamide] | E (provided a mass modification of ≧70%)
24 | C=CC(=O)Nc1cc(C)ccc1Nc1nc(Nc2cc(OC)nc(N(C)C3CC3)c2)ncc1C(F)(F)F [Compound I-342, N-(2-((2-((2-(cyclopropyl(methyl)amino)-6-methoxypyridin-4-yl)amino)-5-(trifluoromethyl)pyrimidin-4-yl)amino)-5-methylphenyl)acrylamide] | E (provided a mass modification of ≧70%)
25 | C=CC(=O)Nc1cc(C)ccc1Nc1nc(Nc2cc(P(C)(C)=O)ncc2C)ncc1C(F)(F)F [Compound I-343, N-(2-((2-((2-(dimethylphosphoryl)-5-methylpyridin-4-yl)amino)-5-(trifluoromethyl)pyrimidin-4-yl)amino)-5-methylphenyl)acrylamide] | F (provided a mass modification of 31-69%)

From patent US9796700B2 (Celgene CAR LLC, priority 2013, dated 2017)
